Laboratory results taken from patent US11739070B2, “C5A receptor modulators” (IDORSIA PHARMACEUTICALS LTD, priority 2018, dated 2023).

target: T1, C5AR1 (Homo sapiens, UniProt P21730); experiment: hC5a DISCO IC50 assay (PathHunter beta-arrestin, antagonist mode); assay type: cell-based; settings: CHO-K1 C5AR1 beta-arrestin cell line; antagonist vs 1-10 nM C5a agonist; geometric mean values; read-out: C5aR IC50
T1 construct: host or cells: CHO-K1
T1 sequence (P21730 1-350): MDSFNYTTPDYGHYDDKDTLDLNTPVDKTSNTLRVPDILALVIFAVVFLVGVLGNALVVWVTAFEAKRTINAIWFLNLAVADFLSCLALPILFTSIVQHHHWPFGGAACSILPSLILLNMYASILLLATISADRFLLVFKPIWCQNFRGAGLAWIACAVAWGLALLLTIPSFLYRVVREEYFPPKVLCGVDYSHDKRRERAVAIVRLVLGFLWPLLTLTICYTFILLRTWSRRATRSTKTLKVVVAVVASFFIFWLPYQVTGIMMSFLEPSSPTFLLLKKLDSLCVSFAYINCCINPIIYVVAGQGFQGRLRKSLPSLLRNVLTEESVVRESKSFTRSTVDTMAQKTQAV
Method: II. Biological Assays In Vitro Assay hC5a DISCO IC50 Assay
5 μl Antagonist at 6-fold end concentration or DMSO control is added to assay medium and subsequently 5 μl 1-10 nM C5a agonist at 6 fold end concentration. Cells are centrifuged for 1 min at 1000 rpm and incubated for 1.5 hour in at 37° C. Plates are equilibrated at room temperature for several minutes before adding 12 μl/well Detection Reagent (PathHunter Detection Kit, DiscoverX, Cat #93-0001). Plates are centrifuged for 1 min at 1000 rpm and incubated for 45 minutes at RT before being measured on a Fluostar Optima, BMG Labtech. IC50 values are calculated from a serial dilution range of antagonist using inhouse software and given in nmol/l.
The calculated IC50 values may fluctuate depending on the daily cellular assay performance. Fluctuations of this kind are known to those skilled in the art. Average IC50 values from several measurements are given as geometric mean values.

| IC50 | Compound |
| --- | --- |
| 84 nM | CCOC(=O)N1CC[C@@H](n2c(=O)n(Cc3ccccc3C(F)(F)F)c3c(OC)cccc32)C1 [Example 60, (R)-3-[4-Methoxy-2-oxo-3-(2-trifluoromethyl-benzyl)-2,3-dihydro-benzoimidazol-1-yl]-pyrrolidine-1-carboxylic acid ethyl ester] |
| 65 nM | COc1cccc2c1n(Cc1ccccc1C(F)(F)F)c(=O)n2[C@@H]1CCN(C(=O)OC(C)C)C1 [Example 61, (R)-3-[4-Methoxy-2-oxo-3-(2-trifluoromethyl-benzyl)-2,3-dihydro-benzoimidazol-1-yl]-pyrrolidine-1-carboxylic acid isopropyl ester] |
| 99 nM | CCCCOC(=O)N1CC[C@@H](n2c(=O)n(Cc3ccccc3C(F)(F)F)c3c(OC)cccc32)C1 [Example 62, (R)-3-[4-Methoxy-2-oxo-3-(2-trifluoromethyl-benzyl)-2,3-dihydro-benzoimidazol-1-yl]-pyrrolidine-1-carboxylic acid butyl ester] |
| 729 nM | COc1cccc2c1n(Cc1ccccc1C(F)(F)F)c(=O)n2[C@@H]1CCN(C(=O)Oc2ccccc2)C1 [Example 63, (R)-3-[4-Methoxy-2-oxo-3-(2-trifluoromethyl-benzyl)-2,3-dihydro-benzoimidazol-1-yl]-pyrrolidine-1-carboxylic acid phenyl ester] |
| 2920 nM | COc1cccc2c1n(Cc1ncccc1C(F)(F)F)c(=O)n2C1CCN(C(=O)OC(C)(C)C)CC1 [Example 64, 4-[4-Methoxy-2-oxo-3-(3-trifluoromethyl-pyridin-2-ylmethyl)-2,3-dihydro-benzoimidazol-1-yl]-piperidine-1-carboxylic acid tert-butyl ester] |
| 396 nM | COc1ccccc1Cn1c(=O)n([C@@H]2CCN(C(=O)OC(C)(C)C)C2)c2cccc(OC)c21 [Example 65, (R)-3-[4-Methoxy-3-(2-methoxy-benzyl)-2-oxo-2,3-dihydro-benzoimidazol-1-yl]-pyrrolidine-1-carboxylic acid tert-butyl ester] |
| 60 nM | COc1cccc2c1n(Cc1ccccc1C(F)(F)F)c(=O)n2[C@@H]1CCN(c2c(C)ccnc2C)C1 [Example 66, 1-[(R)-1-(2,4-Dimethyl-pyridin-3-yl)-pyrrolidin-3-yl]-4-methoxy-3-(2-trifluoromethyl-benzyl)-1,3-dihydro-benzoimidazol-2-one] |
| 36 nM | COc1ccccc1Cn1c(=O)n([C@@H]2CCN(c3c(C)cccc3C)C2)c2cccc(OC)c21 [Example 67, 1-[(R)-1-(2,6-Dimethyl-phenyl)-pyrrolidin-3-yl]-4-methoxy-3-(2-methoxy-benzyl)-1,3-dihydro-benzoimidazol-2-one] |
| 84 nM | COc1ccccc1Cn1c(=O)n([C@@H]2CCN(c3c(F)cccc3F)C2)c2cccc(OC)c21 [Example 68, 1-[(R)-1-(2,6-Difluoro-phenyl)-pyrrolidin-3-yl]-4-methoxy-3-(2-methoxy-benzyl)-1,3-dihydro-benzoimidazol-2-one] |
| 2820 nM | COc1cccc2c1n(Cc1ccccc1C(F)(F)F)c(=O)n2[C@@H]1CCN(c2nnc(C(C)C)o2)C1 [Example 69, 1-[(R)-1-(5-Isopropyl-[1,3,4]oxadiazol-2-yl)-pyrrolidin-3-yl]-4-methoxy-3-(2-trifluoromethyl-benzyl)-1,3-dihydro-benzoimidazol-2-one] |
| 538 nM | COc1cccc2c1n(Cc1ccccc1C(F)(F)F)c(=O)n2[C@@H]1CCN(C(=O)OC2(C)COC2)C1 [Example 70, (R)-3-[4-Methoxy-2-oxo-3-(2-trifluoromethyl-benzyl)-2,3-dihydro-benzoimidazol-1-yl]-pyrrolidine-1-carboxylic acid 3-methyl-oxetan-3-yl ester] |
| 133 nM | COc1cccc2c1n(Cc1ccccc1C(F)(F)F)c(=O)n2[C@@H]1CCN(c2c(C=O)c(C)nn2C)C1 [Example 71, 5-{(R)-3-[4-Methoxy-2-oxo-3-(2-trifluoromethyl-benzyl)-2,3-dihydro-benzoimidazol-1-yl]-pyrrolidin-1-yl}-1,3-dimethyl-1H-pyrazole-4-carbaldehyde] |
| 397 nM | COc1cccc2c1n(Cc1ccccc1C(F)(F)F)c(=O)n2[C@@H]1CCN(C(=O)OC2COC2)C1 [Example 72, (R)-3-[4-Methoxy-2-oxo-3-(2-trifluoromethyl-benzyl)-2,3-dihydro-benzoimidazol-1-yl]-pyrrolidine-1-carboxylic acid oxetan-3-yl ester] |
| 272 nM | COc1cccc2c1n(Cc1ccncc1C(F)(F)F)c(=O)n2C1CCN(c2c(C)cccc2C)CC1 [Example 73, 1-[1-(2,6-Dimethyl-phenyl)-piperidin-4-yl]-4-methoxy-3-(3-trifluoromethyl-pyridin-4-ylmethyl)-1,3-dihydro-benzoimidazol-2-one] |
| 1330 nM | COc1cccc2c1n(Cc1ccncc1C(F)(F)F)c(=O)n2C1CCN(c2c(F)cccc2F)CC1 [Example 74, 1-[1-(2,6-Difluoro-phenyl)-piperidin-4-yl]-4-methoxy-3-(3-trifluoromethyl-pyridin-4-ylmethyl)-1,3-dihydro-benzoimidazol-2-one] |
| 27 nM | COc1cccc2c1n(Cc1ncccc1C(F)(F)F)c(=O)n2C1CCN(c2c(C)cccc2C)CC1 [Example 75, 1-[1-(2,6-Dimethyl-phenyl)-piperidin-4-yl]-4-methoxy-3-(3-trifluoromethyl-pyridin-2-ylmethyl)-1,3-dihydro-benzoimidazol-2-one] |
| 38 nM | COc1cccc2c1n(Cc1ncccc1C(F)(F)F)c(=O)n2C1CCN(c2c(F)cccc2F)CC1 [Example 76, 1-[1-(2,6-Difluoro-phenyl)-piperidin-4-yl]-4-methoxy-3-(3-trifluoromethyl-pyridin-2-ylmethyl)-1,3-dihydro-benzoimidazol-2-one] |
| 89 nM | COc1ccccc1Cn1c(=O)n([C@@H]2CCN(c3c(C)cccc3C)C2)c2ccnc(OC)c21 [Example 77, 1-[(R)-1-(2,6-Dimethyl-phenyl)-pyrrolidin-3-yl]-4-methoxy-3-(2-methoxy-benzyl)-1,3-dihydro-imidazo[4,5-c]pyridin-2-one] |
| 121 nM | COc1ccccc1Cn1c(=O)n([C@@H]2CCN(c3c(C)cccc3F)C2)c2ccnc(OC)c21 [Example 78, 1-[(R)-1-(2-Fluoro-6-methyl-phenyl)-pyrrolidin-3-yl]-4-methoxy-3-(2-methoxy-benzyl)-1,3-dihydro-imidazo[4,5-c]pyridin-2-one] |
| 911 nM | COc1cccc2c1n(Cc1ccccc1C(F)(F)F)c(=O)n2[C@@H]1CCN(c2cc(C)nn2C)C1 [Example 79, 1-[(R)-1-(2,5-Dimethyl-2H-pyrazol-3-yl)-pyrrolidin-3-yl]-4-methoxy-3-(2-trifluoromethyl-benzyl)-1,3-dihydro-benzoimidazol-2-one] |
| 157 nM | COc1cccc2c1n(Cc1ccccc1C(F)(F)F)c(=O)n2[C@@H]1CCN(c2c(Cl)c(C)nn2C)C1 [Example 80, 1-[(R)-1-(4-Chloro-2,5-dimethyl-2H-pyrazol-3-yl)-pyrrolidin-3-yl]-4-methoxy-3-(2-trifluoromethyl-benzyl)-1,3-dihydro-benzoimidazol-2-one] |
| 2430 nM | COc1ccccc1Cn1c(=O)n([C@@H]2CCN(c3c(C)cccc3F)C2)c2cc[nH]c(=O)c21 [Example 81, 1-[(R)-1-(2-Fluoro-6-methyl-phenyl)-pyrrolidin-3-yl]-3-(2-methoxy-benzyl)-3,5-dihydro-1H-imidazo[4,5-c]pyridine-2,4-dione] |
| 28 nM | COc1cccc2c1n(Cc1ccccc1C(F)(F)F)c(=O)n2[C@@H]1CCN(c2c(F)cccc2C#N)C1 [Example 82, 3-Fluoro-2-{(R)-3-[4-methoxy-2-oxo-3-(2-trifluoromethyl-benzyl)-2,3-dihydro-benzoimidazol-1-yl]-pyrrolidin-1-yl}-benzonitrile] |
| 23 nM | COc1cccc2c1n(Cc1ccccc1C(F)(F)F)c(=O)n2[C@@H]1CCN(c2c(F)cccc2C=O)C1 [Example 83, 3-Fluoro-2-{(R)-3-[4-methoxy-2-oxo-3-(2-trifluoromethyl-benzyl)-2,3-dihydro-benzoimidazol-1-yl]-pyrrolidin-1-yl}-benzaldehyde] |
| 2030 nM | COc1cccc2c1n(Cc1ccccc1C(F)(F)F)c(=O)n2[C@@H]1CCN(c2nnc(C(F)(F)F)o2)C1 [Example 84, 4-Methoxy-3-(2-trifluoromethyl-benzyl)-1-[(R)-1-(5-trifluoromethyl-[1,3,4]oxadiazol-2-yl)-pyrrolidin-3-yl]-1,3-dihydro-benzoimidazol-2-one] |
| 712 nM | COc1cccc2c1n(Cc1ccccc1C(F)(F)F)c(=O)n2[C@@H]1CCN(c2c(C)c(C)nn2C)C1 [Example 85, 4-Methoxy-3-(2-trifluoromethyl-benzyl)-1-[(R)-1-(2,4,5-trimethyl-2H-pyrazol-3-yl)-pyrrolidin-3-yl]-1,3-dihydro-benzoimidazol-2-one] |
| 229 nM | COc1cccc2c1n(Cc1ccccc1C(F)(F)F)c(=O)n2[C@@H]1CCN(C(=O)OC2(C(F)(F)F)COC2)C1 [Example 86, (R)-3-[4-Methoxy-2-oxo-3-(2-trifluoromethyl-benzyl)-2,3-dihydro-benzoimidazol-1-yl]-pyrrolidine-1-carboxylic acid 3-trifluoromethyl-oxetan-3-yl ester] |
